US9663473B2 (Actelion Pharmaceuticals Ltd, priority 2013, dated 2017)
Counter-ions that a name gives are not always drawn.

Biological target: T1, recombinant human ALX receptor (Homo sapiens, UniProt P25090)
T1 construct: expressed in transfected cells; host or cells: HEK293 (HEK293-hALXR-Gα16)
T1 sequence (P25090 1-351): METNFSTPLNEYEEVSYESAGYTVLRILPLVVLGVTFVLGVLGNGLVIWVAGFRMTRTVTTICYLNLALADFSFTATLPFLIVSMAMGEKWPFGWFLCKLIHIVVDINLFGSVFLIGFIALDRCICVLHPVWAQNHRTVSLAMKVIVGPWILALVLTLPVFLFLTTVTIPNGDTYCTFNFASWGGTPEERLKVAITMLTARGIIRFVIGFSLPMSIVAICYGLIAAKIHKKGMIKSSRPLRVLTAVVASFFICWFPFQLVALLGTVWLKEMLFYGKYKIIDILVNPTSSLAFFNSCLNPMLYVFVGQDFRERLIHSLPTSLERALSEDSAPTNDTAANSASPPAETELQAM
Experiment: Intracellular calcium measurements (FLIPR), ALX receptor agonistic activity
Assay type: cell-based
Details: HEK293-hALXR-Gα16 cells, Fluo-4 calcium signal, normalized to WKYMVm 10 nM
In short: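 Agonist-induced calcium flux was read by FLIPR (488/540 nm) as baseline-subtracted peak emission, expressed relative to WKYMVm at 10 nM final. Cells used: HEK293-hALXR-Gα16, dye-loaded 60 min at 37° C. with 1 μM Fluo-4 AM before compound dose-response addition.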

Row | Structure (SMILES) | EC50 [nM]
1 | COCCNC(=O)N[C@H](Cc1ccc(OC)cc1)c1nc2ccccc2[nH]1 [Example 59, (R)-1-(1-(1H-Benzo[d]imidazol-2-yl)-2-(4-methoxyphenyl)ethyl)-3-(2-methoxyethyl)urea hydrochloride] | 316
2 | CCC(NC(=O)N[C@H](Cc1ccc(OC)cc1)c1nc2ccccc2[nH]1)c1ccccc1 (stereo partly drawn) [Example 279, 1-((R)-1-(1H-Benzo[d]imidazol-2-yl)-2-(4-methoxyphenyl)ethyl)-3-(1-phenylpropyl)urea] | 40
3 | COc1ccc(C[C@@H](NC(=O)NC23CCC(O)(CC2)CC3)c2nc3ccc(F)cc3[nH]2)cc1 [Example 196, (R)-1-(1-(6-Fluoro-1H-benzo[d]imidazol-2-yl)-2-(4-methoxyphenyl)ethyl)-3-(4-hydroxybicyclo[2.2.2]octan-1-yl)urea] | 0.8
4 | COc1ccc(CC(NC(=O)N[C@H]2CC[C@H](O)CC2)c2nc3cccnc3[nH]2)cc1 (relative stereo) [Example 427, 1-(1-(3H-imidazo[4,5-b]pyridin-2-yl)-2-(4-methoxyphenyl)ethyl)-3-(trans-4-hydroxycyclohexyl)urea] | 604
5 | COc1ccc(C[C@@H](NC(=O)NCCc2ccccc2F)c2nc3ccccc3[nH]2)cc1 [Example 68, (R)-1-(1-(1H-Benzo[d]imidazol-2-yl)-2-(4-methoxyphenyl)ethyl)-3-(2-fluorophenethyl)urea hydrochloride] | 217
6 | COCC(Cc1ccccc1)NC(=O)N[C@H](Cc1ccc(OC)cc1)c1nc2ccccc2[nH]1 (stereo partly drawn) [Example 70, 1-((R)-1-(1H-Benzo[d]imidazol-2-yl)-2-(4-methoxyphenyl)ethyl)-3-(1-methoxy-3-phenylpropan-2-yl)urea] | 17
7 | COc1cc(F)c(CC(NC(=O)NC23CCC(O)(CC2)CC3)c2nc3ccccc3[nH]2)c(F)c1 (centres unmarked) [Example 248, 1-(1-(1H-Benzo[d]imidazol-2-yl)-2-(2,6-difluoro-4-methoxyphenyl)ethyl)-3-(4-hydroxybicyclo[2.2.2]octan-1-yl)urea] | 4.5
8 | COc1ccc(CC(NC(=O)Nc2cc(C)on2)c2nc3ccccc3[nH]2)cc1 (centres unmarked) [Example 401, 1-(1-(1H-Benzo[d]imidazol-2-yl)-2-(4-methoxyphenyl)ethyl)-3-(5-methylisoxazol-3-yl)urea] | 372
9 | COc1ccc(C[C@@H](NC(=O)NC2CCCC(C(=O)O)C2)c2nc3ccccc3[nH]2)cc1 (stereo partly drawn) [Example 229, Lithium 3-(3-((R)-1-(1H-benzo[d]imidazol-2-yl)-2-(4-methoxyphenyl)ethyl)ureido)cyclohexanecarboxylate] | 94
10 | O=C(NC(Cc1ccc(C(F)(F)F)cc1F)c1nc2ccccc2[nH]1)N[C@H]1CC[C@H](O)CC1 (single isomer, unassigned; ent-2) [Example 359, 1-(1-(1H-Benzo[d]imidazol-2-yl)-2-(2-fluoro-4-(trifluoromethyl)phenyl)ethyl)-3-(trans-4-hydroxycyclohexyl)urea (ent-2)] | 19
11 | COc1ccc(C[C@@H](NC(=O)NCCc2ccc(C(F)(F)F)cc2)c2nc3ccccc3[nH]2)cc1 [Example 269, (R)-1-(1-(1H-Benzo[d]imidazol-2-yl)-2-(4-methoxyphenyl)ethyl)-3-(4-(trifluoromethyl)phenethyl)urea] | 471
12 | COc1cc(F)c(CC(NC(=O)N[C@H]2CC[C@H](O)CC2)c2nc3ccccc3[nH]2)c(F)c1 (single isomer, unassigned; ent-1) [Example 316, 1-(1-(1H-Benzo[d]imidazol-2-yl)-2-(2,6-difluoro-4-methoxyphenyl)ethyl)-3-(trans-4-hydroxycyclohexyl)urea (ent-1)] | 3.2
13 | COc1ccc(C[C@@H](NC(=O)NC2CN3CCC2CC3)c2nc3ccc(C#N)cc3[nH]2)cc1 (stereo partly drawn) [Example 154, 1-((R)-1-(6-Cyano-1H-benzo[d]imidazol-2-yl)-2-(4-methoxyphenyl)ethyl)-3-(quinuclidin-3-yl)urea] | 6.8
14 | O=C(NC(Cc1ccc(C(F)(F)F)c(F)c1)c1nc2ccccc2[nH]1)NC12CCC(O)(CC1)CC2 (centres unmarked) [Example 238, 1-(1-(1H-Benzo[d]imidazol-2-yl)-2-(3-fluoro-4-(trifluoromethyl)phenyl)ethyl)-3-(4-hydroxybicyclo[2.2.2]octan-1-yl)urea] | 36
15 | COc1ccc(C[C@@H](NC(=O)NC2(c3ccccc3)CC2)c2nc3ccccc3[nH]2)cc1 [Example 351, (R)-1-(1-(1H-Benzo[d]imidazol-2-yl)-2-(4-methoxyphenyl)ethyl)-3-(1-phenylcyclopropyl)urea] | 350
16 | CCn1nccc1NC(=O)NC(Cc1ccc(OC)cc1)c1nc2ccccc2[nH]1 (centres unmarked) [Example 417, 1-(1-(1H-benzo[d]imidazol-2-yl)-2-(4-methoxyphenyl)ethyl)-3-(1-ethyl-1H-pyrazol-5-yl)urea] | 61

Row | Structure (SMILES) | EC50 [nM]
17 | COc1ccc(C[C@@H](NC(=O)NC2CCCC2)c2nc3ccccc3[nH]2)cc1 [Example 75, (R)-1-(1-(1H-Benzo[d]imidazol-2-yl)-2-(4-methoxyphenyl)ethyl)-3-cyclopentylurea] | 41
18 | COc1ccc(CC(NC(=O)NCCc2ccccn2)c2nc3ccccc3[nH]2)cc1 (centres unmarked) [Example 8, 1-(1-(1H-Benzo[d]imidazol-2-yl)-2-(4-methoxyphenyl)ethyl)-3-(2-(pyridin-2-yl)ethyl)urea] | 593
19 | COc1ccc(C[C@@H](NC(=O)NCC2CCCO2)c2nc3ccccc3[nH]2)cc1 (stereo partly drawn) [Example 57, 1-((R)-1-(1H-Benzo[d]imidazol-2-yl)-2-(4-methoxyphenyl)ethyl)-3-((tetrahydrofuran-2-yl)methyl)urea hydrochloride] | 82
20 | COc1ccc(C[C@@H](NC(=O)NCc2ccncc2)c2nc3ccccc3[nH]2)cc1 [Example 288, (R)-1-(1-(1H-Benzo[d]imidazol-2-yl)-2-(4-methoxyphenyl)ethyl)-3-(pyridin-4-ylmethyl)urea] | 853
21 | COc1ccc(C[C@@H](NC(=O)N[C@H]2CCC[C@@H]2O)c2nc3ccccc3[nH]2)cc1 [Example 115, 1-((R)-1-(1H-Benzo[d]imidazol-2-yl)-2-(4-methoxyphenyl)ethyl)-3-((1S,2S)-2-hydroxycyclopentyl)urea] | 143
22 | O=C(N[C@H](Cc1ccc(Br)cc1)c1nc2ccccc2[nH]1)N[C@H]1CC[C@H](O)CC1 [Example 35, 1-((R)-1-(1H-Benzo[d]imidazol-2-yl)-2-(4-bromophenyl)ethyl)-3-(trans-4-hydroxycyclohexyl)urea] | 5.4
23 | COc1ccc(C[C@@H](NC(=O)NCc2ccnn2-c2ccc(OC)cc2)c2nc3ccccc3[nH]2)cc1 [Example 294, (R)-1-(1-(1H-Benzo[d]imidazol-2-yl)-2-(4-methoxyphenyl)ethyl)-3-((1-(4-methoxyphenyl)-1H-pyrazol-5-yl)methyl)urea] | 7.6
24 | COc1ccc(CC(NC(=O)NC23CCC(O)(CC2)CC3)c2nc3ccccc3[nH]2)c(F)c1 (single isomer, unassigned; ent-1) [Example 261, 1-(1-(1H-Benzo[d]imidazol-2-yl)-2-(2-fluoro-4-methoxyphenyl)ethyl)-3-(4-hydroxybicyclo[2.2.2]octan-1-yl)urea (ent-1)] | 3.2
25 | COc1ccc(C[C@@H](NC(=O)N[C@H]2CC[C@H](O)CC2)c2nc3cc(C)ccc3[nH]2)cc1 [Example 83, 1-(trans-4-Hydroxycyclohexyl)-3-((R)-2-(4-methoxyphenyl)-1-(5-methyl-1H-benzo[d]imidazol-2-yl)ethyl)urea] | 1.7
26 | COc1ccc(CC(NC(=O)NC23CCC(O)(CC2)CC3)c2nc3ccccc3[nH]2)c(F)c1 (centres unmarked) [Example 233, 1-(1-(1H-Benzo[d]imidazol-2-yl)-2-(2-fluoro-4-methoxyphenyl)ethyl)-3-(4-hydroxybicyclo[2.2.2]octan-1-yl)urea] | 3.7
27 | COc1ccc(C[C@@H](NC(=O)NCCN2CCc3ccccc3C2)c2nc3ccccc3[nH]2)cc1 [Example 297, (R)-1-(1-(1H-Benzo[d]imidazol-2-yl)-2-(4-methoxyphenyl)ethyl)-3-(2-(3,4-dihydroisoquinolin-2(1H)-yl)ethyl)urea] | 217
28 | COc1ccc(CC(NC(=O)NC2CCC(C)(O)CC2)c2nc3ccccc3[nH]2)cc1F (single isomer, unassigned; ent-1) [Example 308, 1-(1-(1H-Benzo[d]imidazol-2-yl)-2-(3-fluoro-4-methoxyphenyl)ethyl)-3-(trans-4-hydroxy-4-methylcyclohexyl)urea (ent-1)] | 2.7
29 | COc1ccc(C[C@@H](NC(=O)NCc2cccc(OC)c2)c2nc3ccccc3[nH]2)cc1 [Example 5, (R)-1-(1-(1H-Benzo[d]imidazol-2-yl)-2-(4-methoxyphenyl)ethyl)-3-(3-methoxybenzyl)urea] | 602
30 | COc1ccc(C[C@@H](NC(=O)NC(C)(C)c2ccc(C)cc2)c2nc3ccccc3[nH]2)cc1 [Example 270, (R)-1-(1-(1H-Benzo[d]imidazol-2-yl)-2-(4-methoxyphenyl)ethyl)-3-(2-(p-tolyl)propan-2-yl)urea] | 225
31 | CCn1ccc(C(C)NC(=O)N[C@H](Cc2ccc(OC)cc2)c2nc3ccccc3[nH]2)n1 (stereo partly drawn) [Example 289, 1-((R)-1-(1H-Benzo[d]imidazol-2-yl)-2-(4-methoxyphenyl)ethyl)-3-(1-(1-ethyl-1H-pyrazol-3-yl)ethyl)urea] | 59
32 | CC[C@@H](NC(=O)N[C@H](Cc1ccc(OC)cc1)c1nc2ccccc2[nH]1)c1ccccc1 [Example 344, 1-((R)-1-(1H-Benzo[d]imidazol-2-yl)-2-(4-methoxyphenyl)ethyl)-3-((R)-1-phenylpropyl)urea] | 167
